In patent publication US20230123334A1, “AMINO LIPID COMPOUND, PREPARATION METHOD THEREFOR, AND APPLICATION THEREOF” (SHENZHEN SHENXIN BIOTECHNOLOGY CO., LTD., priority 2020, published 2023):

Test system: HEK293 cells
Assay: Preliminary screening as mRNA vectors, EGFP mRNA transfection of HEK293 cells
Assay type: cell-based
Details: EGFP mRNA 50 ng per well, 96-well plates; percentage of GFP fluorescent cells relative to total number of cells (Hoechst)
Outline: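 Each well of HEK293 cells received 50 ng of EGFP mRNA. Efficiency was expressed as percent GFP-expressing cells over Hoechst-defined total cell number.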

Row | Compound | Absolute mRNA transfection efficiency in HEK293 cells [%]
1 | CCCCCCCCCCCCNc1nc(NCCCN2CCOCC2)nc(SCCCCCCCC)n1 [Compound D8S8N12] | 3.8
2 | CCCCCCCCCCCCCNc1nc(NCCCN2CCOCC2)nc(SCCCCCCCC)n1 [Compound D8S8N13] | 1.5
3 | CCCCCCCCCCCCCCCNc1nc(NCCCN2CCOCC2)nc(SCCCCCCCC)n1 [Compound D8S8N15] | 4.6
4 | CCCCCCCCCCCCCCCCNc1nc(NCCCN2CCOCC2)nc(SCCCCCCCC)n1 [Compound D8S8N16] | 4.9
5 | CCCCCCCCCCCCCCCCCCNc1nc(NCCCN2CCOCC2)nc(SCCCCCCCC)n1 [Compound D8S8N18] | 1.2
6 | CCCCCCCCSc1nc(NCCCN2CCOCC2)nc(SCCCCCCCC)n1 [Compound D8S8S8] | 48.2
7 | CCCCCCCCCSc1nc(NCCCN2CCOCC2)nc(SCCCCCCCC)n1 [Compound D8S8S9] | 47.2
8 | CCCCCCCCCCSc1nc(NCCCN2CCOCC2)nc(SCCCCCCCC)n1 [Compound D8S8S10] | 40.9
9 | CCCCCCCCCCCSc1nc(NCCCN2CCOCC2)nc(SCCCCCCCC)n1 [Compound D8S8S11] | 22.2
10 | CCCCCCCCCCCCSc1nc(NCCCN2CCOCC2)nc(SCCCCCCCC)n1 [Compound D8S8S12] | 67.9
11 | CCCCCCCCCSc1nc(NCCCCCC)nc(NCCCN2CCOCC2)n1 [Compound D8S9N6] | 0.6
12 | CCCCCCCCCSc1nc(NCCCCCCC)nc(NCCCN2CCOCC2)n1 [Compound D8S9N7] | 2.2
13 | CCCCCCCCCSc1nc(NCCCCCCCC)nc(NCCCN2CCOCC2)n1 [Compound D8S9N8] | 5.7
14 | CCCCCCCCCNc1nc(NCCCN2CCOCC2)nc(SCCCCCCCCC)n1 [Compound D8S9N9] | 14.0
15 | CCCCCCCCCCCNc1nc(NCCCN2CCOCC2)nc(SCCCCCCCCC)n1 [Compound D8S9N11] | 23.5
16 | CCCCCCCCCCCCNc1nc(NCCCN2CCOCC2)nc(SCCCCCCCCC)n1 [Compound D8S9N12] | 11.2
17 | CCCCCCCCCCCCCNc1nc(NCCCN2CCOCC2)nc(SCCCCCCCCC)n1 [Compound D8S9N13] | 12.6
18 | CCCCCCCCCCCCCCCNc1nc(NCCCN2CCOCC2)nc(SCCCCCCCCC)n1 [Compound D8S9N15] | 7.2
19 | CCCCCCCCCCCCCCCCNc1nc(NCCCN2CCOCC2)nc(SCCCCCCCCC)n1 [Compound D8S9N16] | 2.1
20 | CCCCCCCCCCCCCCCCCCNc1nc(NCCCN2CCOCC2)nc(SCCCCCCCCC)n1 [Compound D8S9N18] | 1.9
21 | CCCCCCCCCCSc1nc(NCCCCCC)nc(NCCCN2CCOCC2)n1 [Compound D8S10N6] | 0.2

Row | Compound | Absolute mRNA transfection efficiency in HEK293 cells [%]
22 | CCCCCCCCCCSc1nc(NCCCCCCC)nc(NCCCN2CCOCC2)n1 [Compound D8S10N7] | 0.6
23 | CCCCCCCCCCSc1nc(NCCCCCCCC)nc(NCCCN2CCOCC2)n1 [Compound D8S10N8] | 0.4
24 | CCCCCCCCCCSc1nc(NCCCCCCCCC)nc(NCCCN2CCOCC2)n1 [Compound D8S10N9] | 0.1
25 | CCCCCCCCCCCNc1nc(NCCCN2CCOCC2)nc(SCCCCCCCCCC)n1 [Compound D8S10N11] | 0.1
26 | CCCCCCCCCCCCNc1nc(NCCCN2CCOCC2)nc(SCCCCCCCCCC)n1 [Compound D8S10N12] | 0.1
27 | CCCCCCCCCCCCCNc1nc(NCCCN2CCOCC2)nc(SCCCCCCCCCC)n1 [Compound D8S10N13] | 0.2
28 | CCCCCCCCCCCCCCCNc1nc(NCCCN2CCOCC2)nc(SCCCCCCCCCC)n1 [Compound D8S10N15] | 0.2
29 | CCCCCCCCCCCCCCCCNc1nc(NCCCN2CCOCC2)nc(SCCCCCCCCCC)n1 [Compound D8S10N16] | 0.2
30 | CCCCCCCCCCCCCCCCCCNc1nc(NCCCN2CCOCC2)nc(SCCCCCCCCCC)n1 [Compound D8S10N18] | 0.1
31 | CCCCCCCCCCCSc1nc(NCCCCCC)nc(NCCCN2CCOCC2)n1 [Compound D8S11N6] | 2.8
32 | CCCCCCCCCCCSc1nc(NCCCCCCC)nc(NCCCN2CCOCC2)n1 [Compound D8S11N7] | 3.1
33 | CCCCCCCCCCCSc1nc(NCCCCCCCC)nc(NCCCN2CCOCC2)n1 [Compound D8S11N8] | 0.3
34 | CCCCCCCCCCCSc1nc(NCCCCCCCCC)nc(NCCCN2CCOCC2)n1 [Compound D8S11N9] | 1.6
35 | CCCCCCCCCCCNc1nc(NCCCN2CCOCC2)nc(SCCCCCCCCCCC)n1 [Compound D8S11N11] | 3.6
36 | CCCCCCCCCCCCNc1nc(NCCCN2CCOCC2)nc(SCCCCCCCCCCC)n1 [Compound D8S11N12] | 1.0
37 | CCCCCCCCCCCCCNc1nc(NCCCN2CCOCC2)nc(SCCCCCCCCCCC)n1 [Compound D8S11N13] | 3.1
38 | CCCCCCCCCCCCCCCNc1nc(NCCCN2CCOCC2)nc(SCCCCCCCCCCC)n1 [Compound D8S11N15] | 0.5
39 | CCCCCCCCCCCCCCCCNc1nc(NCCCN2CCOCC2)nc(SCCCCCCCCCCC)n1 [Compound D8S11N16] | 0.7
40 | CCCCCCCCCCCCCCCCCCNc1nc(NCCCN2CCOCC2)nc(SCCCCCCCCCCC)n1 [Compound D8S11N18] | 0.6
41 | CCCCCCCCCCCCSc1nc(NCCCCCC)nc(NCCCN2CCOCC2)n1 [Compound D8S12N6] | 0.9
42 | CCCCCCCCCCCCSc1nc(NCCCCCCC)nc(NCCCN2CCOCC2)n1 [Compound D8S12N7] | 1.5

Row | Compound | Absolute mRNA transfection efficiency in HEK293 cells [%]
43 | CCCCCCCCCCCCSc1nc(NCCCCCCCC)nc(NCCCN2CCOCC2)n1 [Compound D8S12N8] | 2.3
44 | CCCCCCCCCCCCSc1nc(NCCCCCCCCC)nc(NCCCN2CCOCC2)n1 [Compound D8S12N9] | 2.3
45 | CCCCCCCCCCCCSc1nc(NCCCCCCCCCCC)nc(NCCCN2CCOCC2)n1 [Compound D8S12N11] | 0.4
46 | CCCCCCCCCCCCNc1nc(NCCCN2CCOCC2)nc(SCCCCCCCCCCCC)n1 [Compound D8S12N12] | 0.0
47 | CCCCCCCCCCCCCNc1nc(NCCCN2CCOCC2)nc(SCCCCCCCCCCCC)n1 [Compound D8S12N13] | 0.3
48 | CCCCCCCCCCCCCCCNc1nc(NCCCN2CCOCC2)nc(SCCCCCCCCCCCC)n1 [Compound D8S12N15] | 0.0
49 | CCCCCCCCCCCCCCCCNc1nc(NCCCN2CCOCC2)nc(SCCCCCCCCCCCC)n1 [Compound D8S12N16] | 0.7
50 | CCCCCCCCCCCCCCCCCCNc1nc(NCCCN2CCOCC2)nc(SCCCCCCCCCCCC)n1 [Compound D8S12N18] | 1.1
51 | CCCCCCCCCCCCCCSc1nc(NCCCCCC)nc(NCCCN2CCOCC2)n1 [Compound D8S14N6] | 9.2
52 | CCCCCCCCCCCCCCSc1nc(NCCCCCCC)nc(NCCCN2CCOCC2)n1 [Compound D8S14N7] | 3.1
53 | CCCCCCCCCCCCCCSc1nc(NCCCCCCCC)nc(NCCCN2CCOCC2)n1 [Compound D8S14N8] | 1.6
54 | CCCCCCCCCCCCCCSc1nc(NCCCCCCCCC)nc(NCCCN2CCOCC2)n1 [Compound D8S14N9] | 2.3
55 | CCCCCCCCCCCCCCSc1nc(NCCCCCCCCCCC)nc(NCCCN2CCOCC2)n1 [Compound D8S14N11] | 2.0
56 | CCCCCCCCCCCCCCSc1nc(NCCCCCCCCCCCC)nc(NCCCN2CCOCC2)n1 [Compound D8S14N12] | 1.3
57 | CCCCCCCCCCCCCCSc1nc(NCCCCCCCCCCCCC)nc(NCCCN2CCOCC2)n1 [Compound D8S14N13] | 1.4
58 | CCCCCCCCCCCCCCCNc1nc(NCCCN2CCOCC2)nc(SCCCCCCCCCCCCCC)n1 [Compound D8S14N15] | 0.0
59 | CCCCCCCCCCCCCCCCNc1nc(NCCCN2CCOCC2)nc(SCCCCCCCCCCCCCC)n1 [Compound D8S14N16] | 0.4
60 | CCCCCCCCCCCCCCCCCCNc1nc(NCCCN2CCOCC2)nc(SCCCCCCCCCCCCCC)n1 [Compound D8S14N18] | 0.3
61 | CCCCCCCCCCCCCCCSc1nc(NCCCCCC)nc(NCCCN2CCOCC2)n1 [Compound D8S15N6] | 3.5
